Test system: SCID mice
Assay: Preclinical dosimetry from biodistribution in mice, extrapolated to 70-kg Standard Adult (OLINDA/EXM 1.0)
Format: in vivo
Conditions: […] bladder voiding interval
Procedure: 3-5 mice were injected per timepoint with a mean 25.6±3.6 MBq of 18F-rhPSMA-7 and 28.5±4.8 MBq of 18F-rhPSMA-7.3, respectively. Mice, severe combined immunodeficiency (SCID) were used for the experiments.
Mice were sacrificed at the following timepoints: • ^18F-rhPSMA-7: 10, 20, 40, 60, 120 and 180 minutes after administration. • ^18F-rhPSMA-7.3: 10, 60, 120, 180 and 300 minutes after administration.
Urine, blood, heart, lung, spleen, pancreas, liver, stomach (emptied), small intestine (emptied), large intestine (emptied), kidneys, bladder, testis, fat, muscle (partial, femoral), femur, tail and brain. Urine was collected with a pipette in the CO2 gas chamber. In case of missing urination in the chamber the bladder was aspirated with an insulin syringe. Blood was withdrawn instantly after sacrifice with an insulin syringe from the heart. All other tissues and organs were dissected and transferred directly in plastic containers.
The counting rates of measurement samples were automatically corrected for decay. The radioactivity distribution ratios (unit: percentage of the injected dose (% ID) in the measurement samples were determined using the equation below. The sum of the counting rates from all measurement samples obtained from one mouse was designated as the counting rate for administrated radioactivity.
The radioactivity distribution ratio per unit weight of the measurement sample (unit: % ID/g) excluding urine and feces samples was determined by using the equation below. The weight of the measurement sample was determined by subtraction of the empty measurement container from the container including the sample.
For consistency of statistical calculations for each radiotracer the same number of time-points for ^18F-rhPSMA-7 and ^18F-rhPSMA-7.3 was used. Therefore, for ^18F-rhPSMA-7 the 10 min and 20 min time points were combined creating a 15 min endpoint.
The time-integral of activity for the accumulation in the significant source organs (AUCs) were generated both with numerical integration and physical decay according to J Juan et al., Journal of Pharmaceutical Sciences, 1993, 82:762-763.
In brief, to calculate a human dosimetry from the biodistribution in the mice, an extrapolation was necessary to account for the differences between the animals and humans. Normal-organ radiation doses were estimated for the 70-kg Standard Adult anatomic model using time-depending organ activity concentrations (in percent of the injected dose per gram, % ID/g) and total-body activities measured in the biodistribution studies in mice.
Tissue activity concentrations in mice were converted to tissue fractional activities in the 70-kg Standard Adult using the relative fractional organ masses in the Standard Adult and the “standard” 25-gramm mouse. Time-dependent total-body activity was fit to an exponential function and the difference between the injected activity and the total-body activity was assumed to be excreted to the urine because activity concentrations in the liver and GI tracer were low at all time points studied.
Organ residence time was calculated by numerical integration using the trapezoidal rule and the rest-of-body ^18F residence times was calculated as the difference between the total-body residence time and the sum of the organ and urine residence times. The bladder contents residence time was estimated using the dynamic voiding model in the OLINDA/EXM 1.0 dosimetry software. Finally, the Standard Adult mean organ dose equivalents (in mSv/MBq) and effective dose (also in mSv/MBq) were then calculated using OLIN DA/EXM 1.0.
Final calculation of radiation absorbed dose and dosimetry from biodistribution in mice: The tissues or organs in which a significant accumulation of radioactivity occurs (i.e., source organ) were kidney, spleen, lung, liver and heart. With respect to activity accumulation and clearance, a rapid clearance from blood and clearance to urine but relatively slow build-up in kidney was found.

CC(C)(C)[Si](F)(c1ccc(C(=O)NC[C@@H](NC(=O)CC[C@@H](C(=O)O)N2CCN(CC(=O)[O-])CCN(CC(=O)[O-])CCN(CC(=O)[O-])CC2)C(=O)N[C@H](CCCCNC(=O)CCC(=O)NCCC[C@@H](NC(=O)CC[C@H](NC(=O)N[C@@H](CCC(=O)O)C(=O)O)C(=O)O)C(=O)O)C(=O)O)cc1)C(C)(C)C.[Ga+3] [rhPSMA7.3, [^19F][^natGa]D-Dap-S-DOTAGA-rhPSMA7]
Adrenals ED Cont.: 5.52E−05 mSv/MBq
Adrenals EDE Cont.: 0.00E000 mSv/MBq
Adrenals dose Alpha: 0.00E000 mSv/MBq
Adrenals dose Beta: 3.12E−03 mSv/MBq
Adrenals dose Photon: 7.93E−03 mSv/MBq
Adrenals dose Total: 1.10E−02 mSv/MBq
Brain ED Cont.: 3.59E−05 mSv/MBq
Brain EDE Cont.: 0.00E000 mSv/MBq
Brain dose Alpha: 0.00E000 mSv/MBq
Brain dose Beta: 3.12E−03 mSv/MBq
Brain dose Photon: 4.07E−03 mSv/MBq
Brain dose Total: 7.19E−03 mSv/MBq
Breasts ED Cont.: 3.34E−04 mSv/MBq
Breasts EDE Cont.: 1.00E−03 mSv/MBq
Breasts dose Alpha: 0.00E000 mSv/MBq
Breasts dose Beta: 3.12E−03 mSv/MBq
Breasts dose Photon: 3.55E−03 mSv/MBq
Breasts dose Total: 6.67E−03 mSv/MBq
Gallbladder Wall ED Cont.: 0.00E000 mSv/MBq
Gallbladder Wall EDE Cont.: 0.00E000 mSv/MBq
Gallbladder Wall dose Alpha: 0.00E000 mSv/MBq
Gallbladder Wall dose Beta: 3.12E−03 mSv/MBq
Gallbladder Wall dose Photon: 7.46E−03 mSv/MBq
Gallbladder Wall dose Total: 1.06E−02 mSv/MBq
Heart Wall ED Cont.: 0.00E000 mSv/MBq
Heart Wall EDE Cont.: 0.00E000 mSv/MBq
Heart Wall dose Alpha: 0.00E000 mSv/MBq
Heart Wall dose Beta: 1.32E−03 mSv/MBq
Heart Wall dose Photon: 5.39E−03 mSv/MBq
Heart Wall dose Total: 6.71E−03 mSv/MBq
Kidneys ED Cont.: 3.59E−04 mSv/MBq
Kidneys EDE Cont.: 4.31E−03 mSv/MBq
Kidneys dose Alpha: 0.00E000 mSv/MBq
Kidneys dose Beta: 5.11E−02 mSv/MBq
Kidneys dose Photon: 2.07E−02 mSv/MBq
Kidneys dose Total: 7.18E−02 mSv/MBq
LLI Wall ED Cont.: 1.91E−03 mSv/MBq
LLI Wall EDE Cont.: 9.53E−04 mSv/MBq
LLI Wall dose Alpha: 0.00E000 mSv/MBq
LLI Wall dose Beta: 3.12E−03 mSv/MBq
LLI Wall dose Photon: 1.28E−02 mSv/MBq
LLI Wall dose Total: 1.59E−02 mSv/MBq
Liver ED Cont.: 3.00E−04 mSv/MBq
Liver EDE Cont.: 0.00E000 mSv/MBq
Liver dose Alpha: 0.00E000 mSv/MBq
Liver dose Beta: 9.70E−04 mSv/MBq
Liver dose Photon: 5.02E−03 mSv/MBq
Liver dose Total: 5.99E−03 mSv/MBq
Lungs ED Cont.: 7.93E−04 mSv/MBq
Lungs EDE Cont.: 7.93E−04 mSv/MBq
Lungs dose Alpha: 0.00E000 mSv/MBq
Lungs dose Beta: 1.95E−03 mSv/MBq
Lungs dose Photon: 4.66E−03 mSv/MBq
Lungs dose Total: 6.61E−03 mSv/MBq
Muscle ED Cont.: 4.83E−05 mSv/MBq
Muscle EDE Cont.: 0.00E000 mSv/MBq
Muscle dose Alpha: 0.00E000 mSv/MBq
Muscle dose Beta: 3.12E−03 mSv/MBq
Muscle dose Photon: 6.55E−03 mSv/MBq
Muscle dose Total: 9.67E−03 mSv/MBq
Osteogenic Cells ED Cont.: 1.32E−04 mSv/MBq
Osteogenic Cells EDE Cont.: 3.97E−04 mSv/MBq
Osteogenic Cells dose Alpha: 0.00E000 mSv/MBq
Osteogenic Cells dose Beta: 6.70E−03 mSv/MBq
Osteogenic Cells dose Photon: 6.52E−03 mSv/MBq
Osteogenic Cells dose Total: 1.32E−02 mSv/MBq
Ovaries ED Cont.: 3.14E−03 mSv/MBq
Ovaries EDE Cont.: 3.92E−03 mSv/MBq
Ovaries dose Alpha: 0.00E000 mSv/MBq
Ovaries dose Beta: 3.12E−03 mSv/MBq
Ovaries dose Photon: 1.26E−02 mSv/MBq
Ovaries dose Total: 1.57E−02 mSv/MBq
Pancreas ED Cont.: 5.70E−05 mSv/MBq
Pancreas EDE Cont.: 0.00E000 mSv/MBq
Pancreas dose Alpha: 0.00E000 mSv/MBq
Pancreas dose Beta: 3.12E−03 mSv/MBq
Pancreas dose Photon: 8.29E−03 mSv/MBq
Pancreas dose Total: 1.14E−02 mSv/MBq
Red Marrow ED Cont.: 1.08E−03 mSv/MBq
Red Marrow EDE Cont.: 1.08E−03 mSv/MBq
Red Marrow dose Alpha: 0.00E000 mSv/MBq
Red Marrow dose Beta: 2.22E−03 mSv/MBq
Red Marrow dose Photon: 6.79E−03 mSv/MBq
Red Marrow dose Total: 9.01E−03 mSv/MBq
Skin ED Cont.: 6.95E−05 mSv/MBq
Skin EDE Cont.: 0.00E000 mSv/MBq
Skin dose Alpha: 0.00E000 mSv/MBq
Skin dose Beta: 3.12E−03 mSv/MBq
Skin dose Photon: 3.83E−03 mSv/MBq
Skin dose Total: 6.95E−03 mSv/MBq
Small Intestine ED Cont.: 6.27E−05 mSv/MBq
Small Intestine EDE Cont.: 0.00E000 mSv/MBq
Small Intestine dose Alpha: 0.00E000 mSv/MBq
Small Intestine dose Beta: 3.12E−03 mSv/MBq
Small Intestine dose Photon: 9.42E−03 mSv/MBq
Small Intestine dose Total: 1.25E−02 mSv/MBq
Spleen ED Cont.: 1.34E−04 mSv/MBq
Spleen EDE Cont.: 1.60E−03 mSv/MBq
Spleen dose Alpha: 0.00E000 mSv/MBq
Spleen dose Beta: 1.52E−02 mSv/MBq
Spleen dose Photon: 1.15E−02 mSv/MBq
Spleen dose Total: 2.67E−02 mSv/MBq
Stomach Wall ED Cont.: 1.22E−03 mSv/MBq
Stomach Wall EDE Cont.: 0.00E000 mSv/MBq
Stomach Wall dose Alpha: 0.00E000 mSv/MBq
Stomach Wall dose Beta: 3.12E−03 mSv/MBq
Stomach Wall dose Photon: 7.02E−03 mSv/MBq
Stomach Wall dose Total: 1.01E−02 mSv/MBq
Testes ED Cont.: 0.00E000 mSv/MBq
Testes EDE Cont.: 0.00E000 mSv/MBq
Testes dose Alpha: 0.00E000 mSv/MBq
Testes dose Beta: 3.12E−03 mSv/MBq
Testes dose Photon: 8.96E−03 mSv/MBq
Testes dose Total: 1.21E−02 mSv/MBq
Thymus ED Cont.: 4.10E−05 mSv/MBq
Thymus EDE Cont.: 0.00E000 mSv/MBq
Thymus dose Alpha: 0.00E000 mSv/MBq
Thymus dose Beta: 3.12E−03 mSv/MBq
Thymus dose Photon: 5.08E−03 mSv/MBq
Thymus dose Total: 8.20E−03 mSv/MBq
Thyroid ED Cont.: 4.14E−04 mSv/MBq
Thyroid EDE Cont.: 2.48E−04 mSv/MBq
Thyroid dose Alpha: 0.00E000 mSv/MBq
Thyroid dose Beta: 3.12E−03 mSv/MBq
Thyroid dose Photon: 5.15E−03 mSv/MBq
Thyroid dose Total: 8.27E−03 mSv/MBq
Total Body ED Cont.: 0.00E000 mSv/MBq
Total Body EDE Cont.: 0.00E000 mSv/MBq
Total Body dose Alpha: 0.00E000 mSv/MBq
Total Body dose Beta: 3.52E−03 mSv/MBq
Total Body dose Photon: 6.33E−03 mSv/MBq
Total Body dose Total: 9.86E−03 mSv/MBq
ULI Wall ED Cont.: 5.85E−05 mSv/MBq
ULI Wall EDE Cont.: 0.00E000 mSv/MBq
ULI Wall dose Alpha: 0.00E000 mSv/MBq
ULI Wall dose Beta: 3.12E−03 mSv/MBq
ULI Wall dose Photon: 8.57E−03 mSv/MBq
ULI Wall dose Total: 1.17E−02 mSv/MBq
Urinary Bladder Wall ED Cont.: 1.14E−02 mSv/MBq
Urinary Bladder Wall EDE Cont.: 1.36E−02 mSv/MBq
Urinary Bladder Wall dose Alpha: 0.00E000 mSv/MBq
Urinary Bladder Wall dose Beta: 1.56E−01 mSv/MBq
Urinary Bladder Wall dose Photon: 7.14E−02 mSv/MBq
Urinary Bladder Wall dose Total: 2.27E−01 mSv/MBq
Uterus ED Cont.: 1.18E−04 mSv/MBq
Uterus EDE Cont.: 1.41E−03 mSv/MBq
Uterus dose Alpha: 0.00E000 mSv/MBq
Uterus dose Beta: 3.12E−03 mSv/MBq
Uterus dose Photon: 2.04E−02 mSv/MBq
Uterus dose Total: 2.36E−02 mSv/MBq

— patent publication US12357711B2, “PSMA binding dual mode radiotracer and therapeutic” (Technische Universität München, priority 2019, dated 2025)
